Assays:
[1] = test system: constitutive Renilla reporter expression in HEK293 cells; test: Renilla luciferase internal control reporter; format: cell-based; conditions: E2 titration, treated/untreated (Fig. 5)
[2] = biological target: T1, GR (pBIND-GR, GR-LBD/GAL4 DBD) (Homo sapiens, UniProt P04150); format: cell-based; conditions: for Induction: GR agonist, fold-induction, 384-well
T1 sequence (P04150 500-777): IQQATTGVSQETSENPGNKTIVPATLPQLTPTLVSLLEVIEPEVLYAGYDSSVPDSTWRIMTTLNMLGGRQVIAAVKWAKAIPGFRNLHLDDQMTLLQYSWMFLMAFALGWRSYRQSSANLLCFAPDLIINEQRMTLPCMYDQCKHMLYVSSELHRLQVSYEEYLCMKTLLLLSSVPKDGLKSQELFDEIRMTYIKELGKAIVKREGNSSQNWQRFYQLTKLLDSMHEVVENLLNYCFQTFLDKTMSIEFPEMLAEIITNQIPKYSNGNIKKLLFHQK

C[C@]12CC[C@@H]3c4ccc(O)cc4CC[C@H]3[C@@H]1CC[C@@H]2O [17β-estradiol, 17β- estradiol]
Renilla reporter induction [1]: around 1.0

C[C@@H]1C[C@H]2[C@@H]3CCC4=CC(=O)C=C[C@]4(C)[C@@]3(F)[C@@H](O)C[C@]2(C)[C@@]1(O)C(=O)CO [Dexamethasone, dexamethasone]
Induction [2]: 760

C[C@]12CCC(=O)C=C1CC[C@@H]1[C@@H]2[C@@H](O)C[C@@]2(C)[C@H]1CC[C@]2(O)C(=O)CO [Hydrocortisone, hydrocortisone]
Induction [2]: 450

C[C@]12CCC(=O)C=C1CC[C@@H]1[C@@H]2[C@@H](O)C[C@]2(C=O)[C@@H](C(=O)CO)CC[C@@H]12 [aldosterone]
EC50 [2]: 21 µM | Induction [2]: 42

Reference: paper PMC3115594 (Current Chemical Genomics, 2010)
